Key:
[1] = molecular target: central benzodiazepine receptors; assay: inhibition of the binding of tritiated flumazenil to the specific benzodiazepine receptors in the cortex of rats; conditions: 50% inhibition of specific binding of tritiated flumazenil, rat cortex; read-out: Affinity to benzodiazepine receptors IC50
Experimental: The affinity of compounds of general formula I to the central benzodiazepine receptors was established in vitro according to the methods described in Nature 294, 763-765 (1981) and J. Neurochemistry 37, 714-722 (1981). According to these methods the inhibition of the binding of tritiated flumazenil to the specific benzodiazepine receptors in the cortex of rats by the respective test substances is determined. The IC50 ("50% inhibiting concentration") denotes that concentration of the respective test substance which brings about a 50 percent inhibition of the specific binding of tritiated flumazenil to the specific benzodiazepine receptors in the cortex of rats.

mice = assay: rotating rod test in mice (sedative/muscle relaxant properties), i.v.; type: in vivo, mouse; conditions: for ED50: Mus musculus, iv
Experimental: The sedative/muscle relaxant properties of the compounds of formula II in accordance with the invention can be determined, for example, in the rotating rod test. Mice weighing 19-21 g are used for this test. They have free access to feed and drinking water up to 1 hour prior to the beginning of the test. They are brought into the test laboratory at least 30 minutes prior to the test. In the rotating rod test the animals are placed on a horizontally arranged, smooth metal rod having a diameter of 3 cm., which is rotated at 2 revolutions per minute. Initially, the animals are given the opportunity of familiarizing themselves with the test situation for 30 seconds. Subsequently, those animals which succeed in remaining on the rod for at least 1 minute are selected. The test preparations are then administered intraveneously to these animals in different dosages. At various points in time it is then determined whether the animals are able to remain for a minimum period on the rod (minimum period: 10 seconds, 1 minute from 5 minutes after administration). That dosage at which 50% of the animals are capable of remaining on the rod is determined (ED50).

[2] = 15 s, minimum time 10 sec, 15 sec after administration
[3] = 0.5 min, minimum time 10 sec, 30 sec after administration
[4] = 1 min, minimum time 10 sec, 60 sec after administration
[5] = 2 min, minimum time 10 sec, 2 min after administration
[6] = 5 min, minimum time 60 sec, 5 min after administration
[7] = 0.25 h, minimum time 60 sec, 15 min after administration
[8] = 0.5 h, minimum time 60 sec, 30 min after administration
[9] = 1 h, minimum time 60 sec, 60 min after administration

## 2-Chloro-4-(2-fluorophenyl)-8,9-dihydro-6H-imidazo[1,2-a]thieno[3,2-f][1,4]diazepine-8-methanol
[1]
  IC50: 2.6 nM
mice; minimum time 10 sec, 15 sec after administration, 0.25 min
  Rotating rod test, ED50: 0.5 mg/kg
mice; minimum time 10 sec, 30 sec after administration, 0.5 min
  Rotating rod test, ED50: 0,7 mg/kg
mice; minimum time 10 sec, 60 sec after administration, 1 min
  Rotating rod test, ED50: 0.6 mg/kg
mice; minimum time 10 sec, 2 min after administration
  Rotating rod test, ED50: 1.2 mg/kg
mice; minimum time 60 sec, 5 min after administration
  Rotating rod test, ED50: 2.3 mg/kg
mice; minimum time 60 sec, 15 min after administration
  Rotating rod test, ED50: 5.3 mg/kg
mice; minimum time 60 sec, 30 min after administration
  Rotating rod test, ED50: ≥ 10 mg/kg
mice; minimum time 60 sec, 60 min after administration
  Rotating rod test, ED50: > 10 mg/kg

## CC(=O)OCc1cn2c(n1)CN=C(c1ccccc1F)c1cc(Cl)sc1-2 [B]
[1]
  IC50: 6 nM
mice; [2]
  ED50: 0.6 mg/kg
mice; [3]
  ED50: 0.7 mg/kg
mice; [4]
  ED50: 1.2 mg/kg
mice; [5]
  ED50: 1 mg/kg
mice; [6]
  ED50: ≥ 10 mg/kg
mice; [7]
  ED50: ≥ 10 mg/kg
mice; [8]
  ED50: ≥ 10 mg/kg
mice; [9]
  ED50: > 10 mg/kg

## OCc1cn2c(n1)CN=C(c1ccccc1F)c1cc(Cl)ccc1-2 [C, 8-Chloro-6-(2-fluorophenyl)-4H-imidazo[1,2-a]benzodiazepine-2-methanol]
[1]
  IC50: 1.7 nM
mice; [2]
  ED50: 0.1 mg/kg
mice; [3]
  ED50: 0.3 mg/kg
mice; [4]
  ED50: 0.3 mg/kg
mice; [5]
  ED50: ≥ 10 mg/kg
mice; [6]
  ED50: 0.8 mg/kg
mice; [7]
  ED50: 0.4 mg/kg
mice; [8]
  ED50: 1.1 mg/kg
mice; [9]
  ED50: ≥ 10 mg/kg

## C=CCNCc1c(CO)nc2n1-c1ccc(Cl)cc1C(c1ccccc1F)=NC2 [D, 1-Allylaminomethyl-8-chloro-6-(2-fluorophenyl)-4H-imidazo[1,2-a][1,4]benzodiazepine-2-methanol]
[1]
  IC50: 5.6 nM
mice; [2]
  ED50: 2.5 mg/kg
mice; [3]
  ED50: 3 mg/kg
mice; [4]
  ED50: 3.2 mg/kg
mice; [5]
  ED50: 3.2 mg/kg
mice; [6]
  ED50: 2.1 mg/kg
mice; [7]
  ED50: 1.8 mg/kg
mice; [8]
  ED50: ≥ 10 mg/kg
mice; [9]
  ED50: > 10 mg/kg

## OCc1cn2c(n1)CN=C(c1ccccc1Cl)c1cc(Cl)ccc1-2 [E, 8-Chloro-6-(2-chlorophenyl)-4H-imidazo[1,2-a][1,4]benzodiazepine-2 methanol]
[1]
  IC50: 1.2 nM
mice; [2]
  ED50: ≤ 0.32 mg/kg
mice; [3]
  ED50: 0.4 mg/kg
mice; [4]
  ED50: 0.5 mg/kg
mice; [5]
  ED50: 3.2 mg/kg
mice; [6]
  ED50: 0.9 mg/kg
mice; [7]
  ED50: 0.5 mg/kg
mice; [8]
  ED50: ≥ 3.2 mg/kg
mice; [9]
  ED50: ≥ 3.2 mg/kg

## OCc1cn2c(n1)CN=C(c1ccccc1)c1cc(C(F)(F)F)ccc1-2 [F, 8-Trifluoromethyl-6-phenyl-4H-imidazo[1,2-a][1,4]benzodiazepine-2 methanol]
[1]
  IC50: 12 nM
mice; [2]
  ED50: 1 mg/kg
mice; [3]
  ED50: 1.1 mg/kg
mice; [4]
  ED50: 1.1 mg/kg
mice; [5]
  ED50: > 3.2 mg/kg
mice; [6]
  ED50: 1 mg/kg
mice; [7]
  ED50: 0.9 mg/kg
mice; [8]
  ED50: 1.1 mg/kg
mice; [9]
  ED50: 1.8 mg/kg

## O=[N+]([O-])c1ccc2c(c1)C(c1ccccc1F)=NCc1nc(CO)cn1-2 [G, 6-(2-Fluorophenyl)-8-nitro-4H-imidazo[1,2-a][1,4]benzodiazepine-2 methanol]
[1]
  IC50: 2.3 nM
mice; [2]
  ED50: 0.2 mg/kg
mice; [3]
  ED50: 0.2 mg/kg
mice; [4]
  ED50: 0.3 mg/kg
mice; [5]
  ED50: 0.3 mg/kg
mice; [6]
  ED50: 0.1 mg/kg
mice; [7]
  ED50: 0.2 mg/kg
mice; [8]
  ED50: 0.2 mg/kg
mice; [9]
  ED50: ≥ 1 mg/kg

## OCc1cn2c(n1)CN=C(c1ccccc1F)c1cc(I)ccc1-2 [H, 6-(2-Fluorophenyl)-8-iodo-4H-imidazo[1,2-a][1,4]benzodiazepine-2 methanol]
[1]
  IC50: 2.07 nM
mice; [2]
  ED50: 0.1 mg/kg
mice; [3]
  ED50: 0.06 mg/kg
mice; [4]
  ED50: 0.09 mg/kg
mice; [5]
  ED50: 0.1 mg/kg
mice; [6]
  ED50: 0.1 mg/kg
mice; [7]
  ED50: 0.1 mg/kg
mice; [8]
  ED50: ≥ 1 mg/kg
mice; [9]
  ED50: > 1 mg/kg

## OCc1cn2c(n1)CN=C(c1ccccn1)c1cc(Br)ccc1-2 [I, 8-Bromo-6-(2-pyridyl)-4H-imidazo[1,2-a][1,4]benzodiazepine-2 methanol]
[1]
  IC50: 40 nM
mice; [2]
  ED50: 1.5 mg/kg
mice; [3]
  ED50: 2 mg/kg
mice; [4]
  ED50: 3 mg/kg
mice; [5]
  ED50: > 10 mg/kg
mice; [6]
  ED50: 1.4 mg/kg
mice; [7]
  ED50: 1.8 mg/kg
mice; [8]
  ED50: 3 mg/kg
mice; [9]
  ED50: ≥ 10 mg/kg

From patent US6174881A, “Hydroxymethylimidazodiazepines and their esters” (Hoffman-La Roche Inc., priority 1995, dated 2001)
